Results taken from patent US6277867A, “Pesticide compounds, compositions and process for the preparation thereof” (priority 1995, dated 2001).

Key:
[1] = system: resistant house fly, IX strain; assay: Synergistic activity on resistant house fly, IX strain; format: in vivo, Musca domestica
Description: (§1) Investigation of Synergistic Activity on Resistant House Fly (Musca domestica) Populations
(§2) Investigation was carried out as described in biological Example 1. LD50 values and synergist ratios were determined as given in Example 2.

[2] = system: resistant house fly, INSEL strain; assay: Synergistic activity on resistant house fly, INSEL strain; format: in vivo, Musca domestica
Description: as §1, §2

[3] = system: two-spotted spider mite (Tetranychus urticae); assay: Synergism of acaricidal effect on two-spotted spider mite (leaf-disc dip); format: in vivo; conditions: alone, 48 hours, read-out: Mortality %
Description: Synergism of Acaricidal Effect Investigated on Two-spotted Spider Mite (Tetranychus urticae)
From the first pair of leaves of a 1 week old bean plant leaf-discs of […] diameter were cut which were treated by dipping them (5 min) into the test solution consisting of the active ingredient and the synergist in definite concentrations. For the preparation of the stock solutions of required concentration, 10% acetone as co-solvent and 0.1% Tween-80 as detergent were applied. The dried leaf-discs were placed on wet surface and they were infected with […]-up female mites per leaf. After 48 hours the mortality was recorded using microscope and a brush. The experiment was performed in 4 replica.

[4] = system: cotton bollworm (Helicoverpa armigera); assay: Synergist spectrum on cotton bollworm, topical; format: in vivo
Description: (§3) Investigation of Synergist Spectrum on House Fly (Musca domestica) and Cotton Bollworm (Helicoverpa armigera) Following Topical Administration
(§4) Synerzistic activities of materials No. 279 and 599 of the present invention for various active ingredients were determined on house fly (Musca domestica) and cotton bollworm (Helicoverpa armigera) using methods of treatments as described in biological Examples 1 and 2. For the active ingredients ISO common names are given (see: Pesticide Manual 1994).

[5] = system: cotton bollworm (Helicoverpa armigera); assay: Synergistic activity on cotton bollworm following topical application; conditions: in vivo
Description: Investigation of Synergistic Activity on Cotton Bollworm (Helicoverpa armigera) Following Topical Application
Treatment was performed similarity as described in Example 1. but L2 stadium grubs of cotton bollworms (Helicoverpa armigera) were treated as test animals. From the 24 hour dose--mortality data the LD50 (ng/grub) values were determined using probit analysis. None of the synergists acted at the applied 1000 ng/grub dose. Synergist ratio was calculated as the quotient of the LD50 values of carbofuran administered alone, and with the synergist. The experiments were performed in 2-4 replica.

flies = assay: Comparative investigations with known reference synergists on flies treated with carbofuran; format: in vivo; conditions: flies treated with carbofuran and 1000 ng of the synergist
Excerpt: These SR50 ratios were compared to those of the new compounds prepared by us.

[6] = system: house fly (Musca domestica); assay: Synergist spectrum on house fly, topical; format: in vivo
Description: as §3, §4

[7] = system: house fly (Musca domestica); conditions: in vivo, topical_or_ocular, 1440 min
Description: Investigation of Synergistic Activity on House Fly (Musca domestica) Following Topical Application
In two parallel experiments 10 female. 2-4 day old house flies were treated on the vental side of their thorax with 0.2 μl of the test solution, with the help of Hamilton MicroLab P microdispenser. Beside fixed synergist dose of 1000 ng/fly the animals were treated with carbofuran at a dose of 20 ng/fly. For solvent cellosolve was used. Selection and counting of the flies were performed under the action of CO2. After treatment the flies were kept in plastic cups covered with tulle. Mortality after 24 hours was expressed in %.

[8] = system: house fly (Musca domestica); assay: Effect of the active ingredient:synergist ratio on the synergistic activity (flies)
Description: Effect of the Active Ingredient:Synergist Ratio on the Synergistic Activity
Treatment was performed as described in Example 1. using Hamilton MicroLab P microdispenser. In two parallel experiments 10 female -3 day old flies were treated on the ventral side of their thorax with 0.2 μl test solution. Beside 1000-400-200-80 ng/fly fixed doses of the synergist they were treated with constant 20 ng/fly CARBOFURAN®. Selection and counting of the flies were performed under the action of CO2. After treatment the flies were kept in plastic cups covered with tulle. After 24 hours mortality % was recorded. Depending on the results the experiments were performed in 2-4 replica.

[9] = carbofuran 20 ng/fly + synergist 80 ng/fly
[10] = carbofuran 20 ng/fly + synergist 200 ng/fly
[11] = carbofuran 20 ng/fly + synergist 400 ng/fly
[12] = house fly, in vivo, topical_or_ocular

In the case of `CNC(=O)O/N=C/C(C)(C)SC` [ALDICARB, reference compound], the LD50 ([1]; active ingredient alone) is reported as 2104 ng/fly and the LD50 ([2]; active ingredient alone) is reported as 695 ng/fly.

Compound `CNC(=O)Oc1cccc2c1OC(C)(C)O2` [BENDIOCARB, reference compound] has an LD50 ([1]; active ingredient alone) of 100000 ng/fly and an LD50 ([2]; active ingredient alone) of 100000 ng/fly.

Work on `CC(C)OC(=O)C(O)(c1ccc(Br)cc1)c1ccc(Br)cc1` [BROMOROPYLATE] yielded a mortality at 31 ppm [3] of 18%, a mortality at 62 ppm [3] of 28% and a mortality at 125 ppm [3] of 90%.

With `CC#CCOCc1cccc2ccccc12` [Compound 279, 1-naphthyl-methyl 2-butynyl ether] the Synergist ratio ([4]; with AZINPHOSMETHYL) was > 5, the Synergist ratio ([4]; with BENDIOCARB) was > 10 and the Synergist ratio ([4]; with CARBOFURAN) was > 10. The Synergist ratio ([4]; with CHLORPYRIPHOS) was > 5, the Synergist ratio ([4]; with LINDAN) was > 5 and the Synergist ratio ([4]; with PROPOXUR) was > 10. It also gave an LD50 ([1]; ALDICARB + 279) of 507 ng/fly, an SR ([1]; ALDICARB + 279) of 4 and an LD50 ([1]; BENDIOCARB + 279) of 746 ng/fly. For the same compound, the SR ([1]; BENDIOCARB + 279) was 134, the LD50 ([1]; CARBOFURAN + 279) was 94 ng/fly and the SR ([1]; CARBOFURAN + 279) was 4760. For the same compound, the LD50 ([1]; ISOPROCARB + 279) was 2145 ng/fly, the SR ([1]; ISOPROCARB + 279) was 47 and the LD50 ([1]; METHOMYL + 279) was 109 ng/fly. For the same compound, the SR ([1]; METHOMYL + 279) was 5, the LD50 ([1]; PIRIMICARB + 279) was 3562 ng/fly and the SR ([1]; PIRIMICARB + 279) was 115. For the same compound, the Synergist ratio [5] was > 5, the LD50 ([2]; ALDICARB + 279) was 172 ng/fly and the SR ([2]; ALDICARB + 279) was 4. It also gave an LD50 ([2]; BENDIOCARB + 279) of 150 ng/fly, an SR ([2]; BENDIOCARB + 279) of 667 and an LD50 ([2]; CARBOFURAN + 279) of 29 ng/fly. The SR ([2]; CARBOFURAN + 279) was 530, the LD50 ([2]; ESBIOL + 279) was 794 ng/fly and the SR ([2]; ESBIOL + 279) was 13. It also gave an LD50 ([2]; ISOPROCARB + 279) of 983 ng/fly, an SR ([2]; ISOPROCARB + 279) of 102 and an LD50 ([2]; METHOMYL + 279) of 46 ng/fly. For the same compound, the SR ([2]; METHOMYL + 279) was 10, the LD50 ([2]; PIRIMICARB + 279) was 696 ng/fly and the SR ([2]; PIRIMICARB + 279) was 145. For the same compound, the “Synergist ratio SR50” value (flies) was 28.7, the Synergist ratio ([6]; with AMINOCARB) was > 20 and the Synergist ratio ([6]; with AZINPHOSMETHYL) was > 5. The Synergist ratio ([6]; with BENDIOCARB) was > 20, the Synergist ratio ([6]; with CARBOFURAN) was > 20 and the Synergist ratio ([6]; with CHLORPYRIPHOS) was > 5. The Synergist ratio ([6]; with DIOXACARB) was > 20, the Synergist ratio ([6]; with ESBIOL) was > 5 and the Synergist ratio ([6]; with FENOBUCARB) was > 10. For the same compound, the Synergist ratio ([6]; with IMIDACLOPRID) was > 5, the Synergist ratio ([6]; with ISOPROCARB) was > 40 and the Synergist ratio ([6]; with LINDAN) was > 5. For the same compound, the Synergist ratio ([6]; with METHOMYL) was > 10, the Synergist ratio ([6]; with PIRIMICARB) was > 20 and the Synergist ratio ([6]; with PROPOXUR) was > 20. For the same compound, the Synergist ratio ([6]; with THIODICARB) was > 10, the mortality at 31 ppm [3] was 0% and the mortality at 62 ppm [3] was 6%. For the same compound, the mortality at 125 ppm [3] was 8%, the mortality at 250 ppm ([3]; 250 ppm) was 18% and the mortality at 500 ppm ([3]; 500 ppm) was 30%. It also gave a mortality % [7] of 72%.

`CC#CCOCc1ccc(OC)c(OC)c1` [Compound 493, (2-Butynyloxy-methyl)-3,4-dimethoxy-benzene] was tested, and the Synergist ratio [5] was > 5, the “24 hour mortality (%)” value [8, 9] was 75% and the “24 hour mortality (%)” value [8, 10] was 88%. For the same compound, the “24 hour mortality (%)” value [8, 11] was 94%, the “24 hour mortality (%)” value [8, 12] was 100% and the “Synergist ratio SR50” value (flies) was 32.84. It also gave a mortality % [7] of 100%.

In the case of `CC#CCOC(=O)c1ccc2c(c1)OCO2` [Compound 502, 2-Butynyl 1,3-benzodioxol-5-carboxylate], the Synergist ratio [5] is reported as > 5, the “Synergist ratio SR50” value (flies) is reported as 6.28 and the mortality % [7] is reported as 47%.

`CC#CCOCc1c(Cl)cccc1Cl` [Compound 503, 2,6-Dichloro-1-(2-butynyloxy-methyl)-benzene] was tested, and the Synergist ratio [5] was > 5, the “24 hour mortality (%)” value [8, 9] was 37% and the “24 hour mortality (%)” value [8, 10] was 50%. For the same compound, the “24 hour mortality (%)” value [8, 11] was 65%, the “24 hour mortality (%)” value [8, 12] was 93% and the “Synergist ratio SR50” value (flies) was 21.16. It also gave a mortality % [7] of 95%.

`CC#CCOCC1COc2ccccc2O1` (stereo not shown) [Compound 510, 2-[(2-Butynyloxy)-methyl]-1,4-benzodioxane] was tested, and the Synergist ratio [5] was > 5, the “Synergist ratio SR50” value (flies) was 18.32 and the mortality % [7] was 75%.

In the case of `CC#CCON=C(C)c1cccc2ccccc12` [Compound 571, 1-Aceto-naphthon-oxim-(2-butynyl)-ether], the Synergist ratio [5] is reported as > 5, the “Synergist ratio SR50” value (flies) is reported as 10.02 and the mortality % [7] is reported as 53%.
